Test results as given in publication PMC11799985 (ACS Omega, 2024).
“And” between values parts separate entries of the source, which are not always exact repeats. Identical values can stand only once. Like-named read-outs stand apart in the source and are kept apart here.

Legend:
[1] = test system: T. cruzi amastigote; set-up: method as in PMID 26014945, PMID 29357372, PMID 28241112, PMID 19937668, PMID 19060927; conditions: cited from earlier work
[2] = test system: T. cruzi epimastigote; set-up: method as in PMID 26014945, PMID 29357372, PMID 28241112, PMID 19937668, PMID 19060927; conditions: cited from earlier work
[3] = test system: T. brucei; set-up: method as in PMID 7097719; conditions: cited from earlier work
[4] = test system: infected mice; conditions: cited from earlier work
[5] = biological target: T1, TbSir2rp1 (Trypanosoma brucei brucei, UniProt Q57V41); test: biochemical; conditions: for ligand efficiency (LE): LE = –R·T·ln(IC50)/HAC, from TbSir2rp1 IC50; for IC50: TbSir2rp1, enzyme 1 μM, NAD+ 100 μM, acetylated peptide 50 μM, 37 °C, 2 h, read-out: IC50; for Hill coefficient (nH): concentration–response curve against TbSir2rp1
T1 construct: The TbSir2rp1 gene was cloned into the pET24(+) expression plasmid (Novagen); His tag; made in house; host or cells: Escherichia coli BL21-Codon Plus (DE3)-RIL
T1 sequence (Q57V41 1-351): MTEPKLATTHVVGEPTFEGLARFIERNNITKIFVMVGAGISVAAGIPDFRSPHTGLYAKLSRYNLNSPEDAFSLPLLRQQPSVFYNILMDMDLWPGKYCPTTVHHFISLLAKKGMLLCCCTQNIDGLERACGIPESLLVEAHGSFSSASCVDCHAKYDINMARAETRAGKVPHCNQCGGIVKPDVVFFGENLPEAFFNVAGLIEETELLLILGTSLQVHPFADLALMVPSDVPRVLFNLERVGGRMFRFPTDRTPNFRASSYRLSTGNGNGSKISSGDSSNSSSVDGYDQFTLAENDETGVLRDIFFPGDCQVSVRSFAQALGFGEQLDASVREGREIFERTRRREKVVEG
Protocol: The acetylated peptide corresponds to the sequence Abz-Gly-Pro-acetylLys-SerGln–EDDnp, where Abz is ortho-aminobenzoic acid and EDDnp is N-[2,4-dinitrophenyl]ethylenediamine.
To halt the deacetylation reaction, 4 mM nicotinamide was used. For each pair of wells in the 96-well plate, 0.2 mg/mL of trypsin was added to only one well to hydrolyze the acetylated peptide, enabling fluorescence emission. Fluorescence was measured immediately at 420 nm with excitation at 320 nm using a SpectraMax M2 microplate reader (Molecular Devices).
Deacetylation activity was determined by the difference between the well where trypsin was added and the well without trypsin. All assays were performed in triplicate, and activity values were reported as means ± standard deviations with outliers identified and excluded from the calculations. Statistical analyses were conducted using Prism 7 software (GraphPad).
The screening of the 90 fragments was performed at a single concentration of 500 μM in triplicate. The enzyme was used at 1 μM, and the substrates NAD^+ and acetylated peptide were used at 100 and 50 μM, respectively. Incubation was carried out at 37.0 °C for 2 h. Each fragment was added to a pair of wells, with trypsin being added to only one well, as previously described for inhibitory activity calculation. […] Ligand efficiency (LE) was calculated as LE = –R·T·ln(IC50)/HAC using IC50 values instead of KD for comparison. […] The inhibition mechanism was characterized using Lineweaver–Burk plots under five concentrations of each substrate and three concentrations of the fragment. IC50 values were determined with at least seven different concentrations, and Lineweaver–Burk analysis used six concentrations.

[6] = test system: human lung cells (WI-26VA-4); set-up: method as in PMID 33295837; conditions: WI-26VA-4 human lung cells; cited from earlier work
[7] = test system: T. cruzi; set-up: method as in PMID 34936867; conditions: T. cruzi-infected mice; cited from earlier work
[8] = test system: L. donovani amastigote; set-up: method as in PMID 26014945, PMID 29357372, PMID 28241112, PMID 19937668, PMID 19060927; conditions: cited from earlier work
[9] = test system: TcSir2rp3; set-up: method as in PMID 26014945, PMID 29357372, PMID 28241112, PMID 19937668, PMID 19060927; conditions: cited from earlier work
[10] = test system: LiSir2rp1; set-up: method as in PMID 26014945, PMID 29357372, PMID 28241112, PMID 19937668, PMID 19060927; conditions: cited from earlier work
[11] = test system: L. infantum amastigote; set-up: method as in PMID 26014945, PMID 29357372, PMID 28241112, PMID 19937668, PMID 19060927; conditions: cited from earlier work
[12] = biological target: T1, TbSir2rp1; test: biochemical; format: biochemical
[13] = read-out: % Inhibition TbSir2rp1, Table S2, complete fragment library, single concentration of 500 μM
[14] = read-out: % Inhibition TbSir2rp1 at 500 μM, Table 1, fragment 500 μM, triplicate, mean ± SD

O=C1c2cccc3cccc(c23)C(=O)N1CCCNCCCCNCCCNCCCN1C(=O)c2cccc3cccc(c23)C1=O [BNIPSpd]
EC50 [1]: 2.8 µM
EC50 [2]: 13.3 µM

Cc1c(O)c2ccccc2c2nc(N)sc12 [Fragment 1]
minimum lytic concentration [3]: 100 µM
maximum tolerated dose [4]: 50 mg/kg
ligand efficiency (LE) [5]: 0.41
IC50 [5]: 17.8 µM
Hill coefficient (nH) [5]: 1.22
inhibition at 500 µM [5, 13]: 99 ± 0.47%
inhibition at 500 µM [5, 14]: 99 ± 0.5%

Cc1ccc(S(=O)(=O)N/N=C/c2cccs2)cc1 [Fragment 2]
CC50 [6]: 226 µM
ligand efficiency (LE) [5]: 0.31
IC50 [5]: < 100 µM and 77.9 µM
Hill coefficient (nH) [5]: 0.77
inhibition at 500 µM [5, 13]: 84 ± 2.3%
inhibition at 500 µM [5, 14]: 83.7 ± 2.3%

NC(=O)N1c2ccccc2C=Cc2ccccc21 [O=C(N)N1C2=CC=CC=C2C=CC3=CC=CC=C31]
inhibition at 500 µM [5, 13]: 2.1 ± 5%

NC(=O)N1c2ccccc2CC(=O)c2ccccc21 [O=C(N)N1C2=CC=CC=C2CC(C3=CC=CC=C31)=O]
inhibition at 500 µM [5, 13]: 0.85 ± 6.5%

CCC1(c2ccccc2)C(=O)NC(=O)NC1=O [O=C(NC(C1(CC)C2=CC=CC=C2)=O)NC1=O]
inhibition at 500 µM [5, 13]: 2.7 ± 1.6%

CCC1(CC)C(=O)NC(=O)NC1=O [O=C(NC(C1(CC)CC)=O)NC1=O]
inhibition at 500 µM [5, 13]: 19 ± 6%

CNC(=O)c1c(C(C)C)oc2nc(N3CCCC3)ccc12 [O=C(NC)C1=C(C(C)C)OC2=C1C=CC(N3CCCC3)=N2]
inhibition at 500 µM [5, 13]: 47 ± 10%

NNC(=O)Cc1cccnc1 [O=C(NN)CC1=CN=CC=C1]
inhibition at 500 µM [5, 13]: 2.3 ± 22%

O=C(NNc1ccccc1)NNc1ccccc1 [O=C(NNC1=CC=CC=C1)NNC2=CC=CC=C2]
inhibition at 500 µM [5, 13]: 48 ± 1.8%

O=C(O)c1ccccc1O [O=C(O)C1=CC=CC=C1O]
inhibition at 500 µM [5, 13]: -10 ± 1.7%

N[C@@H](Cc1ccc(O)c(O)c1)C(=O)O [O=C(O)[C@@H](N)CC1=CC=C(O)C(O)=C1]
inhibition at 500 µM [5, 13]: -4 ± 4.1%

CCOC(=O)c1ccc(N)cc1 [O=C(OCC)C1=CC=C(N)C=C1]
inhibition at 500 µM [5, 13]: 12 ± 1.4%

CCN(CC)CCOC(=O)c1ccc(N)cc1 [O=C(OCCN(CC)CC)C1=CC=C(N)C=C1]
inhibition at 500 µM [5, 13]: 50 ± 11%

Nc1ccc(S(N)(=O)=O)cc1 [O=S(C1=CC=C(N)C=C1)(N)=O]
inhibition at 500 µM [5, 13]: -4.7 ± 2.3%

Cc1ccc(S(=O)(=O)n2cccc2)cc1 [O=S(N1C=CC=C1)(C2=CC=C(C)C=C2)=O]
inhibition at 500 µM [5, 13]: -22 ± 5.8%

O=[N+]([O-])c1cccc(C2=NCCO2)c1 [O=[N+](C1=CC=CC(C2=NCCO2)=C1)[O-]]
inhibition at 500 µM [5, 13]: 44 ± 24%

O=c1cc(-c2ccccc2)c2c(O)cc(O)cc2o1 [OC1=CC(O)=CC(O2)=C1C(C3=CC=CC=C3)=CC2=O]
inhibition at 500 µM [5, 13]: 17 ± 27%

CC(C)[C@@H]1CC[C@@H](C)CC1O (stereo partly drawn) [OC1[C@H](C(C)C)CC[C@@H](C)C1]
inhibition at 500 µM [5, 13]: 22 ± 5%

Sc1nnc(Cc2ccccc2)s1 [SC1=NN=C(CC2=CC=CC=C2)S1]
inhibition at 500 µM [5, 13]: 9.4 ± 1%

O=C(/C=C/c1cccc2c1oc1ccccc12)NO [TB56]
parasite burden [7]: reduced parasite burden

O=c1[nH]c(=S)[nH]c(-c2ccccc2)c1Cc1c(O)ccc2ccccc12 [cambinol]
EC50 [8]: 1.7 µM

COC(=O)Nc1nc2ccc(C(=O)c3ccccc3)cc2[nH]1 [mebendazole, reference compound]
ligand efficiency (LE) [5]: 0.24
IC50 [5]: 121 µM
Hill coefficient (nH) [5]: 1.25

CC(C(=O)Nc1cccc(/N=C/c2c(O)ccc3ccccc23)c1)c1ccccc1 (stereo not drawn) [salermide]
EC50 [2]: 10.6 µM
IC50 [9]: 1 µM

CC(NC(=O)c1ccccc1/N=C/c1c(O)ccc2ccccc12)c1ccccc1 (stereo not drawn) [sirtinol]
EC50 [8]: 5 µM
IC50 [10]: 194 µM
EC50 [11]: 30 µM

Cc1cc(C)nc(NS(=O)(=O)c2ccc(N)cc2)n1 [sulfamethazine]
% inhibition at 100 µM ([12]; Table S3, sulfonyl-hydrazone series, single concentration of 100 μM): Inconc.

Cc1cc(NS(=O)(=O)c2ccc(N)cc2)no1 [sulfamethoxazole, reference compound]
inhibition at 100 µM ([12]; read-out: % inhibition at 100 µM, Table S3, sulfonyl-hydrazone series, single concentration of 100 μM): 2 ± 5.3%
inhibition of TbSir2rp1 (in words) [5]: did not induce any inhibition
